According to patent US20180050040A1, “USE OF 4-(4-FLUORO-2-METHOXYPHENYL)-N--1,3,5-TRIAZIN-2-AMINE FOR TREATING LYMPHOMAS” (Bayer Pharma Aktiengesellschaft, priority 2015, published 2018):
“And” between values parts separate entries of the source, which are not always exact repeats. Equal entries are not always repeated.

What was measured:
ATN-1 = test: Cell proliferation assay (CellTiter Glo); format: cell-based; details: Homo sapiens; ATN-1, ATL; 72 h
Experimental: (§1) The proliferation of all lymphoma cell lines, other than S-YU, in the presence of different concentrations of Compound A′ for 72 h was assessed using CellTiter Glo kits (Promega Corporation, Madison, Wis.). Proliferation of S-YU in the presence of recombinant human interleukin-2 (IL-2) at a final concentration of 100 IU/mL, with different concentrations of Compound A′ for 24 h, was assessed in the same manner. All expressed values were averages of triplicate experiments, and IC50 was calculated using GraphPad Prism 5 (GraphPad Software, San Diego, Calif.) according to the manufacturer's instructions or the MTS software.

DB = test: Cell proliferation assay (CellTiter Glo); format: cell-based; details: Homo sapiens, DLBCL, GCB subtype, 72 h
Experimental: as §1

HBL1 = test: Cell proliferation assay (CellTiter Glo); format: cell-based; details: HBL1, DLBCL, ABC subtype; 72 h
Experimental: as §1

HT = test: Cell proliferation assay (CellTiter Glo); format: cell-based; details: Homo sapiens, DLBCL, GCB subtype, 72 h
Experimental: as §1

Jeko-1 = test: Cell proliferation assay (CellTiter Glo); format: cell-based; details: Homo sapiens; Jeko-1, Mantle cell lymphoma; 72 h
Experimental: as §1

KM-H2 = test: Cell proliferation assay (CellTiter Glo); format: cell-based; details: Homo sapiens; KM-H2, Hodgkin lymphoma; 72 h
Experimental: as §1

Karpas422 = test: Cell proliferation assay (CellTiter Glo); format: cell-based; details: Homo sapiens, KARPAS-422; Karpas422, Follicular lymphoma; 72 h
Experimental: as §1

MJ = test: Cell proliferation assay (CellTiter Glo); format: cell-based; details: ATL, 72 h
Experimental: as §1

MT-1 = test: Cell proliferation assay (CellTiter Glo); format: cell-based; details: MT-1, ATL; 72 h
Experimental: as §1

MT-2 = test: Cell proliferation assay (CellTiter Glo); format: cell-based; details: Homo sapiens, MT2; MT-2, HTLV-1-immortalized cell line; 72 h
Experimental: as §1

MT-4 = test: Cell proliferation assay (CellTiter Glo); format: cell-based; details: Homo sapiens, MT4; MT-4, HTLV-1-immortalized cell line; 72 h
Experimental: as §1

OCI-LY-19 = test: Cell proliferation assay (CellTiter Glo); format: cell-based; details: Homo sapiens, OCI-LY19; OCI-LY-19, DLBCL, GCB subtype; 72 h
Experimental: as §1

OCI-LY-3 = test: Cell proliferation assay (CellTiter Glo); format: cell-based; details: Homo sapiens, OCI-Ly3; OCI-LY-3, DLBCL, ABC subtype; 72 h
Experimental: as §1

Ramos = test: Cell proliferation assay (CellTiter Glo); format: cell-based; details: Homo sapiens, Burkitt's lymphoma, 72 h
Experimental: as §1

SU-DHL-10 = test: Cell proliferation assay (CellTiter Glo); format: cell-based; details: Homo sapiens, SU-DHL10; SU-DHL-10, DLBCL, GCB subtype; 72 h
Experimental: as §1

SU-DHL-4 = test: Cell proliferation assay (CellTiter Glo); format: cell-based; details: Homo sapiens; SU-DHL-4, DLBCL, GCB subtype; 72 h
Experimental: as §1

SU-DHL-6 = test: Cell proliferation assay (CellTiter Glo); format: cell-based; details: Homo sapiens; SU-DHL-6, DLBCL, GCB subtype; 72 h
Experimental: as §1

SU-DHL-8 = test: Cell proliferation assay (CellTiter Glo); format: cell-based; details: Homo sapiens; SU-DHL-8, DLBCL, GCB subtype; 72 h
Experimental: as §1

TL-Om1 = test: Cell proliferation assay (CellTiter Glo); format: cell-based; details: TL-Om1, ATL; 72 h
Experimental: as §1

TL-SU = test: Cell proliferation assay (CellTiter Glo); format: cell-based; details: HTLV-1-immortalized cell line, 72 h
Experimental: as §1

S-YU = test: Cell proliferation assay (CellTiter Glo), S-YU with IL-2; format: cell-based; details: ATL, after 24 hours of incubation, IL-2 100 IU/mL
Experimental: as §1

[1] = tested on: DLBCL OCI-LY-7 xenografts; test: In vivo efficacy and tolerability in DLBCL OCI-LY-7 tumour model subcutaneously implanted in NOG mice; details: 25 mg/kg/day p.o.
Experimental: The aim of the present experiments was to assess the in vivo efficacy and tolerability of Compound A′ in monotherapy in the DLBCL OCI-LY-7 tumour model subcutaneously implanted in NOG mice.
In vivo efficacy was determined in female NOG mice bearing subcutaneous DLBCL OCI-LY-7 xenografts. Compound A′ was assessed at one dose level in monotherapy. Anti-tumour activity and tolerability of the treated group was assessed using the vehicle control group as a reference.
Mouse strain, sex: NOG, female Animals supplied by: Taconic, Denmark Approximate age at implantation: 5-7 weeks
DLBCL tumour fragments, derived from the OCI-LY-7 cell line, were obtained from xenografts in serial passage in nude mice and placed in PBS containing 10% penicillin/streptomycin. Tumour fragments (one fragment per animal; 3-4 mm edge length) were then subcutaneously implanted in the flank of NOG recipient mice under isofluorane anaesthesia.
At randomisation, the volume of growing tumours was initially determined. […] The result of the randomisation was documented and maintained with the experimental data. Animals not randomised were euthanised. The day of randomisation is designated as day 0 of an experiment.
Vehicle: 80% (m/V) PEC400 in water for injection Compound A′: preparation of a dosing solution (2.5 mg/ml) once weekly by diluting the Compound A′ powder at 0.25% (w/v) in vehicle; storage of the dosing solution at 4° C.; dosing volume 10 ml/kg
Mortality checks were conducted daily during routine monitoring.
Mice were weighed twice a week. Relative body weights of individual mice in % were calculated by dividing the individual body weight on day X (BWX) by the individual body weight on day 0 (BW0) multiplied by 100 according to the formula: […]
Group median relative body weights were calculated as well, considering only the weights of mice that were alive on the day in question.
The tumour volumes were determined by two-dimensional measurement with a caliper on the day of randomisation (day 0) and then twice weekly (i.e. on the same days on which mice were weighed). Tumour volumes were calculated according to the formulas:
Tumour volume=(a×b^2)×0.5
Relative volumes of individual tumours (RTVs) for Day x were calculated by dividing the absolute individual tumour volume on Day x (Tx) by the absolute individual tumour volume of the same tumour on Day 0 (T0) multiplied by 100%:
Anti-tumour activity was evaluated as maximum tumour volume inhibition versus the vehicle control group.
Tumour inhibition for a particular day (T/C in %) was calculated from the ratio of the median RTV values of test versus control groups multiplied by 100.
The minimum (or optimum) T/C % value recorded for a particular test group during an experiment represents the maximum anti-tumour activity for the respective treatment. T/C values were calculated if at least 50% of the randomised animals in a group were alive on the day in question.
Group optimum T/C values (in %) were used for activity rating as follows: […]

ATL tumor cells (S-YU) [2] = test: ATL cell-bearing NOG mice treated for 18 days, efficacy evaluated 25 days after inoculation; format: in vivo; details: 12.5 mg/kg p.o. once daily 18 days
Experimental: (§2) NOD/Shi-scid, IL-2Rγ^null (NOG) mice were purchased from the Central Institute for Experimental Animals (Kanagawa, Japan) and used at between 6-8 weeks of age.
A leukemic cell clone from a patient with ATL, which could be serially transplanted into SCID mice and was designated S-YU as reported previously (Eur J Haematol. 2014; 92(3):219-228), was injected intraperitoneally (i.p.) into NOG mice. Three to four weeks after i.p. injection, NOG mice developed intraperitoneal masses within the mesentery. Cells from these intraperitoneal masses were suspended in RPMI-1640 and inoculated i.p. into healthy NOG mice, which then presented with disease features identical to those of the original mice. ATL tumor cells (S-YU) from the intraperitoneal masses were suspended in RPMI-1640, and 1.0×10^7 cells were inoculated i.p. into each of 16 naive NOG mice. The animals were randomly divided into two groups of eight each for treatment with Compound A′ or vehicle, seven days after ATL cell inoculations. Compound A′ was formulated in 40% PEG400 in water at a final concentration of 2.5 mg/mL. Mice were treated by oral application of 12.5 mg/kg Compound A′ (0.25 mg/100 μL per mouse) or vehicle (100 μL), once daily for 18 days (7-24 days after ATL cell inoculations). Therapeutic efficacy was then evaluated 25 days after ATL cell inoculations.
The concentration of human soluble IL-2 receptor (sIL2R) in mouse serum was measured by enzyme-linked immunosorbent assay (ELISA) using a human sIL2R immunoassay kit (R&D Systems, Minneapolis, Minn.) according to the manufacturer's instructions. All expressed values were averages of triplicate experiments.
(§3) Differences between groups regarding the percentage of ATL cells in mouse liver and bone marrow cell suspensions, and human sIL2R concentrations in mouse sera, were examined using a Mann-Whitney U test. Mouse survival analyses were done by Kaplan-Meier method, and survival curves were compared using the log-rank test. All analyses were performed using SPSS Statistics 17.0 software (SPSS Inc., Chicago, Ill.). In this study, P<0.05 was considered significant.

ATL tumor cells (S-YU) [3] = test: ATL cell-bearing NOG mice treated for 21 days, survival times; format: in vivo
Experimental: as §2
ATL cells from intraperitoneal masses suspended in RPMI-1640 were also inoculated i.p. into another 14 naive NOG mice at 1.0×10^7 cells per mouse. These animals were randomly divided into two groups of seven each for treatment with Compound A′ or vehicle. Compound A′ was formulated in the same manner, and mice were treated by oral application of 12.5 mg/kg Compound A′ or vehicle, once daily for 21 days (7-27 days after ATL cell inoculations). The therapeutic efficacy of Compound A′ was evaluated according to survival times.
as §3

[4] = OCI-LY-7 xenograft-bearing NOG mice, days 0-27
[5] = individual treated NOG mice 1-8, 25 days after inoculation, 12.5 mg/kg

COc1cc(F)ccc1-c1ncnc(Nc2cccc(CS(C)(=N)=O)c2)n1 (single isomer, unassigned; (+)) [Compound A′, (+)-4-(4-Fluoro-2-methoxyphenyl)-N-{3-[(S-methylsulfonimidoyl)methyl]phenyl}-1,3,5-triazin-2-amine]
IC50 (ATN-1): 440 nM
IC50 (DB): 570 nM
IC50 (HBL1): 540 nM
IC50 (HT): 710 nM
IC50 (Jeko-1): 740 nM
IC50 (KM-H2): 2200 nM
IC50 (Karpas422): 660 nM
IC50 (MJ): 540 nM
IC50 (MT-1): 1200 nM
IC50 (MT-2): 520 nM
IC50 (MT-4): 1410 nM
IC50 (OCI-LY-19): 480 nM
IC50 (OCI-LY-3): 340 nM
IC50 (Ramos): 1100 nM
IC50 (SU-DHL-10): 600 nM
IC50 (SU-DHL-4): 170 nM
IC50 (SU-DHL-6): 360 nM
IC50 (SU-DHL-8): 610 nM
IC50 (TL-Om1): 790 nM
IC50 (TL-SU): 2130 nM
IC50 (S-YU): 2960 nM
OCI-LY-7 tumour growth compared to vehicle control group ([1]; Mann-Whitney-Wilcoxon U-test): significantly reduced
Activity Rating ([1]; OCI-LY-7 in NOG mice, days 0-27): ++++ (Complete remission T/C < 5%)
Min. T/C [%] (Day) ([1]; OCI-LY-7 in NOG mice, days 0-27, minimum on day 19, 25 mg/kg/day): 2.6% and 2.6 (19) %
Survival rate [1, 4]: 80%
median BWL (body weight loss) [1, 4]: 17.9%
tolerability profile ([1]; lymphoma xenograft bearing mice): acceptable tolerability profile
percentage of ATL cells (human CD45-positive, CD4-positive, CD8-negative) in bone marrow cell suspension (ATL tumor cells (S-YU) [2]; [5]): 0.01% (4×) and 0.02% (2×) and 0.72% and < 0.01%
percentage of ATL cells (human CD45-positive, CD4-positive, CD8-negative) in liver cell suspension (ATL tumor cells (S-YU) [2]; [5]): 0.9% and 1.6% and 1.0% and 0.4% and 2.2% and 1.1% and 0.6% and 0.5%
concentration of human sIL2R in serum, mean (ATL tumor cells (S-YU) [2]; treated NOG mice 1-8, ELISA): 84500 pg/mL
concentration of human sIL2R in serum, median (ATL tumor cells (S-YU) [2]; treated NOG mice 1-8, ELISA): 84900 pg/mL
concentration of human sIL2R in serum, range (ATL tumor cells (S-YU) [2]; treated NOG mice 1-8, ELISA): 69.0-97.4 ×10^3 pg/mL
Toxicity attributable to compound (ATL tumor cells (S-YU) [3]; ATL cell-bearing NOG mice, 12.5 mg/kg p.o. once daily, during the study period): not observed
survival of ATL cell-bearing mice (ATL tumor cells (S-YU) [3]; thirty-eight days after ATL cell inoculation, 12.5 mg/kg p.o. once daily 21 days, n=7): all alive
